This experiment has as its target T1, human CTPS1 (Homo sapiens, UniProt P17812).
T1 construct: FLAG (with GG linker); His8 (with GG linker); purchased Proteros biostructures GmbH
T1 sequence (P17812 1-591): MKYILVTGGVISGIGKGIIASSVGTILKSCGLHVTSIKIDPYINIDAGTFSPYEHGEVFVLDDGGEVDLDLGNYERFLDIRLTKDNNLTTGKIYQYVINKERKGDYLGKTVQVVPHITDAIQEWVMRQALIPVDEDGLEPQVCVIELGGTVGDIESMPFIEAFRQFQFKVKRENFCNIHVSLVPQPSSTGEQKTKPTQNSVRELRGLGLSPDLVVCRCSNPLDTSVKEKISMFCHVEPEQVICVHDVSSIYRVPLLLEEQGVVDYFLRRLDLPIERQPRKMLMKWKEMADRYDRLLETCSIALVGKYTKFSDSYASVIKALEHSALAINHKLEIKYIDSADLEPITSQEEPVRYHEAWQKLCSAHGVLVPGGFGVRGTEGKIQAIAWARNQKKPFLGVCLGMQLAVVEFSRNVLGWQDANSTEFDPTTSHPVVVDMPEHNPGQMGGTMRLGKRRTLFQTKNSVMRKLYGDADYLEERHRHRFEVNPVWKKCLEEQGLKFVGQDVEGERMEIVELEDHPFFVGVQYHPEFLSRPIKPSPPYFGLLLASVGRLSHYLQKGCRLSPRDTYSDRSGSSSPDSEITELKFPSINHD
The experiment in a line: Human CTPS1 enzyme inhibition, ADP-Glo Max assay. It is filed as biochemical. Put shortly:
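Read-out is ADP-Glo Max luminescence: residual ATP depleted (60 min), then produced ADP converted back to ATP for luciferase detection (60 min). Beforehand, protein and compound were mixed for 10 min at 25 °C in Tris buffer pH 8.0 with MgCl2, Tween-20 and 2 mM L-cysteine. Results expressed as percentage inhibition per concentration.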
For orientation: ADP-Glo first removes unused ATP, then detects ADP through luciferase.

The mark [1] stands for this setting: ADP-Glo Max assay, Table 10, read-out: Human CTPS1 Enzyme Inhibition, IC50 grouped by potency range (CTPS1).

Like-named read-outs stand apart in the source and are kept apart here.

On to `COC(C(=O)Nc1ccc(-c2cncc(C(F)(F)F)n2)cc1F)c1csc(NS(=O)(=O)C2CC2)n1` (single isomer, unassigned) [T459, 2-(2-(cyclopropanesulfonamido)thiazol-4-yl)-N-(2-fluoro-4-(6-(trifluoromethyl)pyrazin-2-yl)phenyl)-2-methoxyacetamide], for which the IC50 under setting [1] is < 100 nM.
Turning to `CCCOc1cncc(-c2ccc(NC(=O)C(C)(C)c3csc(NS(=O)(=O)C4CC4)n3)nc2)c1` [T146, 2-(2-(cyclopropanesulfonamido)thiazol-4-yl)-2-methyl-N-(5′-propoxy-[3,3′-bipyridin]-6-yl)propanamide], the IC50 under setting [1] fell in the range of 100 to 1000 nM.
Still for that read-out and setting: to `CC(C)(C(=O)Nc1ccc(-c2cccnc2)cc1)c1csc(NS(=O)(=O)C2CCC2)n1` [T306, 2-(2-(cyclobutanesulfonamido)thiazol-4-yl)-2-methyl-N-(4-(pyridin-3-yl)phenyl)propanamide] belongs 100 to 1000 nM; to `CC(C)(C(=O)Nc1ncc(-c2cnccn2)cc1F)c1csc(NS(=O)(=O)C2CC2)n1` [T110, 2-(2-(cyclopropanesulfonamido)thiazol-4-yl)-N-(3-fluoro-5-(pyrazin-2-yl)pyridin-2-yl)-2-methylpropanamide], 100 to 1000 nM.
For `CC(C)(C(=O)Nc1ccc(-c2cnccc2C(F)(F)F)cc1)c1csc(NS(=O)(=O)C2CC2)n1` [T255, 2-(2-(cyclopropanesulfonamido)thiazol-4-yl)-2-methyl-N-(4-(4-(trifluoromethyl)pyridin-3-yl)phenyl)propanamide], the IC50 under setting [1] is 1000 to 10000 nM.
Still for that read-out and setting: to `CCOc1cncc(-c2ccc(NC(=O)Cc3csc(NS(=O)(=O)C4CC4)n3)c(F)c2)n1` [T423, 2-(2-(cyclopropanesulfonamido)thiazol-4-yl)-N-(4-(6-ethoxypyrazin-2-yl)-2-fluorophenyl)acetamide] belongs < 100 nM; to `CC(C)(C(=O)Nc1ccc(-c2cccnc2F)cc1)c1csc(NS(=O)(=O)C2CC2)n1` [T240, 2-(2-(cyclopropanesulfonamido)thiazol-4-yl)-N-(4-(2-fluoropyridin-3-yl)phenyl)-2-methylpropanamide], 100 to 1000 nM.
With `CC(C)(C(=O)Nc1ncc(-c2cncc(C#N)n2)cc1F)c1csc(NS(=O)(=O)C2CC2)n1` [T113, N-(5-(6-cyanopyrazin-2-yl)-3-fluoropyridin-2-yl)-2-(2-(cyclopropanesulfonamido)thiazol-4-yl)-2-methylpropanamide], the IC50 under setting [1] was in the range of 1000 to 10000 nM.
Same read-out and setting: in the case of `CN(C(=O)C(C)(C)c1csc(NS(=O)(=O)C2CC2)n1)c1ccc(-c2cncc(C#N)c2)cc1` [T309, N-(4-(5-cyanopyridin-3-yl)phenyl)-2-(2-(cyclopropanesulfonamido)thiazol-4-yl)-N,2-dimethylpropanamide] it was 1000 to 10000 nM.
For the molecule `CC(C)(C(=O)Nc1ccc(-c2cncc(C#N)n2)cc1)c1csc(NS(=O)(=O)C2CC2)n1` [T154, N-(4-(6-cyanopyrazin-2-yl)phenyl)-2-(2-(cyclopropanesulfonamido)thiazol-4-yl)-2-methylpropanamide], the IC50 under setting [1] lay within 100 to 1000 nM.
In the case of `CC(C)(C(=O)Nc1ccc(-c2cncc(F)c2)cc1)c1csc(NS(=O)(=O)C2CC2)n1` [T253, 2-(2-(cyclopropanesulfonamido)thiazol-4-yl)-N-(4-(5-fluoropyridin-3-yl)phenyl)-2-methylpropanamide], under setting [1], the IC50 was < 100 nM.
With `Cc1cnc(C)c(-c2ccc(NC(=O)C(C)(C)c3csc(NS(=O)(=O)C4CC4)n3)cc2)n1` [T284, 2-(2-(cyclopropanesulfonamido)thiazol-4-yl)-N-(4-(3,6-dimethylpyrazin-2-yl)phenyl)-2-methylpropanamide], the IC50 under setting [1] lay in the range of 1000 to 10000 nM.
Consider `CC(C)(C(=O)Nc1ccc(-c2cncc(OCC(F)(F)F)c2)cc1)c1csc(NS(=O)(=O)C2CC2)n1` [T135, 2-(2-(cyclopropanesulfonamido)thiazol-4-yl)-2-methyl-N-(4-(5-(2,2,2-trifluoroethoxy)pyridin-3-yl)phenyl)propanamide], for which, under setting [1], the IC50 lay in the range of 100 to 1000 nM.
In the case of `COc1cncc(-c2cnc(NC(=O)C(C)(C)c3csc(NS(=O)(=O)C4CC4)n3)nc2)c1` [T292, 2-(2-(cyclopropanesulfonamido)thiazol-4-yl)-N-(5-(5-methoxypyridin-3-yl)pyrimidin-2-yl)-2-methylpropanamide], the IC50 under setting [1] was in the range of 100 to 1000 nM.
Same read-out and setting: to `CC(C)(C(=O)Nc1ncc(-c2cccnc2)cc1F)c1csc(NS(=O)(=O)C2CC2)n1` [T227, 2-(2-(cyclopropanesulfonamido)thiazol-4-yl)-N-(5-fluoro-[3,3′-bipyridin]-6-yl)-2-methylpropanamide] belongs 100 to 1000 nM.
In the case of `CCOc1cncc(-c2ccc(CNC(C)(C)c3csc(NS(=O)(=O)C4CC4)n3)c(F)c2)n1` [R94, N-(4-(2-((4-(6-Ethoxypyrazin-2-yl)-2-fluorobenzyl)amino)propan-2-yl)thiazol-2-yl)cyclopropanesulfonamide], under “ADP-Glo Max assay”, the “inhibition of CTPS1 enzyme (result in words)” value was “activity is retained”. Moreover, the IC50 (Table 14, ADP-Glo Max assay, read-out: CTPS1 (Human CTPS1 Enzyme Inhibition data grouped by potency range)) is < 100 nM.
`Cc1c(Cl)cncc1-c1ccc(NC(=O)C(C)(C)c2csc(NS(=O)(=O)C3CC3)n2)cc1` [T428, N-(4-(5-chloro-4-methylpyridin-3-yl)phenyl)-2-(2-(cyclopropanesulfonamido)thiazol-4-yl)-2-methylpropanamide]: the IC50 under setting [1] lay within 100 to 1000 nM.
For the molecule `CCC(CC)(C(=O)Nc1ccc(-c2cnccn2)cc1)c1csc(NS(=O)(=O)C2CC2)n1` [T122, 2-(2-(cyclopropanesulfonamido)thiazol-4-yl)-2-ethyl-N-(4-(pyrazin-2-yl)phenyl)butanamide], the IC50 under setting [1] was < 100 nM.
Regarding `CCCOc1cncc(-c2ccc(NC(=O)C(C)(C)c3csc(NS(=O)(=O)C4CC4)n3)nc2)n1` [T38, 2-(2-(cyclopropanesulfonamido)thiazol-4-yl)-2-methyl-N-(5-(6-propoxypyrazin-2-yl)pyridin-2-yl)propanamide], the IC50 under setting [1] is < 100 nM.
The same measure, in the same setting: to `Cc1cc(-c2cncc(C#N)n2)ccc1NC(=O)C(C)(C)c1csc(NS(=O)(=O)C2CC2)n1` [T465, N-(4-(6-cyanopyrazin-2-yl)-2-methylphenyl)-2-(2-(cyclopropanesulfonamido)thiazol-4-yl)-2-methylpropanamide] belongs 1000 to 10000 nM; to `CC(C)(O)c1cccc(-c2ccc(NC(=O)C(C)(C)c3csc(NS(=O)(=O)C4CC4)n3)nc2)c1` [T237, 2-(2-(cyclopropanesulfonamido)thiazol-4-yl)-N-(5-(3-(2-hydroxypropan-2-yl)phenyl)pyridin-2-yl)-2-methylpropanamide], 1000 to 10000 nM; to `CCOc1cncc(-c2ccc(NC(=O)C(C)(C)c3csc(NS(=O)(=O)C(C)(C)C)n3)cc2)n1` [T304, 2-(2-((1,1-dimethylethyl)sulfonamido)thiazol-4-yl)-N-(4-(6-ethoxypyrazin-2-yl)phenyl)-2-methylpropanamide], 100 to 1000 nM.
Still for that read-out and setting: to `O=C(Cc1csc(NS(=O)(=O)C2CC2)n1)Nc1ccc(-c2cccnc2)cc1F` [T216, 2-(2-(cyclopropanesulfonamido)thiazol-4-yl)-N-(2-fluoro-4-(pyridin-3-yl)phenyl)acetamide] belongs 100 to 1000 nM.
On the same count and under the same terms, in the case of `Cc1cc(NC(=O)C(C)(C)c2csc(NS(=O)(=O)C3CC3)n2)ccc1-c1cncc(Cl)c1` [T288, N-(4-(5-chloropyridin-3-yl)-3-methylphenyl)-2-(2-(cyclopropanesulfonamido)thiazol-4-yl)-2-methylpropanamide] it was 100 to 1000 nM.
